Test [1] deals with Sitophilus oryzae. In words: Insecticidal activity against Sitophilus oryzae (rice weevil) infected wheat assessed as mortality at 0.125 to 0.75 ppm applied as spray after 24 hr in absence of diatomaceous earth. In kind it is functional.
For test [2], the system named is Sitophilus oryzae. Briefly: Insecticidal activity against Sitophilus oryzae (rice weevil) infected wheat assessed as mortality at 0.75 ppm applied as spray after 48 hr in presence of diatomaceous earth. It counts as functional.
In test [3] the test system is Sitophilus oryzae. Briefly: Insecticidal activity against Sitophilus oryzae (rice weevil) infected wheat assessed as increase in mortality at 0.75 ppm applied as spray after 14 days in absence of diatomaceous earth. It counts as functional, organism-based.
In test [4] the test system is Tribolium confusum. Briefly: Insecticidal activity against Tribolium confusum (confused flour beetle) infected wheat assessed as increase in mortality at 0.125 ppm applied as spray after 14 days in absence of diatomaceous earth. In kind it is functional. To be noted: 336 h.
In test [5] the test system is Sitophilus oryzae. Briefly: Insecticidal activity against Sitophilus oryzae (rice weevil) infected wheat assessed as increase in mortality at 0.125 to 0.25 ppm applied as spray after 14 days in presence of diatomaceous earth. It counts as functional, organism-based.
In test [6] the test system is Tribolium confusum. In words: Insecticidal activity against Tribolium confusum (confused flour beetle) infected wheat assessed as increase in mortality at 0.25 to 0.75 ppm applied as spray after 14 days in absence of diatomaceous earth. It counts as functional.
Test [7] concerns Sitophilus oryzae. In words: Insecticidal activity against Sitophilus oryzae (rice weevil) infected wheat assessed as decrease in progeny productionc at 0.125 to 0.75 ppm applied as spray after 60 days in absence of diatomaceous earth. In kind it is functional, organism-based.
Test [8] has as its system Tribolium confusum. Briefly: Insecticidal activity against Tribolium confusum (confused flour beetle) infected wheat assessed as increase in mortality at 0.125 to 0.75 ppm applied as spray after 7 days in absence of diatomaceous earth. It counts as functional, organism-based.
Test [9] relates to Sitophilus oryzae. Briefly: Insecticidal activity against Sitophilus oryzae (rice weevil) infected wheat assessed as decrease in progeny productionc at 0.125 to 0.75 ppm applied as spray after 60 days in presence of diatomaceous earth. In kind it is functional, organism-based.
The test system of test [10] is Sitophilus oryzae. In words: Insecticidal activity against Sitophilus oryzae (rice weevil) infected wheat assessed as increase in mortality at 0.125 ppm applied as spray after 7 days in absence of diatomaceous earth. It counts as functional, organism-based.
The subject of test [11] is Sitophilus oryzae. Briefly: Insecticidal activity against Sitophilus oryzae (rice weevil) infected wheat assessed as mortality at 0.75 ppm applied as spray after 7 days in absence of diatomaceous earth. In kind it is functional. The note with it: 168 h.
Test [12] deals with Sitophilus oryzae. Briefly: Insecticidal activity against Sitophilus oryzae (rice weevil) infected wheat assessed as increase in mortality at 0.75 ppm applied as spray after 14 days in presence of diatomaceous earth. It counts as functional, organism-based.
Test [13] has as its system Sitophilus oryzae. Briefly: Insecticidal activity against Sitophilus oryzae (rice weevil) infected wheat assessed as increase in mortality at 0.125 to 0.25 ppm applied as spray after 48 hr in presence of diatomaceous earth. It counts as functional, organism-based.
Test [14] concerns Tribolium confusum. Briefly: Insecticidal activity against Tribolium confusum (confused flour beetle) infected wheat assessed as increase in mortality at 0.125 to 0.75 ppm applied as spray after 24 hr in absence of diatomaceous earth. In kind it is functional, organism-based.
For test [15], the system named is Sitophilus oryzae. Briefly: Insecticidal activity against Sitophilus oryzae (rice weevil) infected wheat assessed as mortality at 0.75 ppm applied as spray after 48 hr in absence of diatomaceous earth. It counts as functional.
For test [16], the system named is Tribolium confusum. In words: Insecticidal activity against Tribolium confusum (confused flour beetle) infected wheat assessed as increase in mortality at 0.125 to 0.75 ppm applied as spray after 48 hr in presence of diatomaceous earth. In kind it is functional, organism-based.

The structures appear in SMILES notation. Calls of active or inactive are those of the source. The rule behind the calls is not given here. Some results are limits rather than exact numbers.

Usually mortality stands for the share of the test organisms that died.

Regarding `CC1(C)C(C=C(Cl)Cl)C1C(=O)OC(C#N)c1ccc(F)c(Oc2ccccc2)c1` (stereo unspecified) [CYFLUTHRIN], the figures for the mortality in [1] and in [6] were 6% and 100%, respectively. The mortality at 0.75 ppm in [2] is 79%; in [11] it was above 98%; in test [15], 79%. Besides, the result in test [3], in test [5], in test [8], in [9], in [10] and in [12] was Active. The result in test [13], in test [14] and in [16] was Active. For the same compound, in test [4], the mortality at 0.125 ppm was above 91%. In addition, in [7], the result was inactive.
